Test results from article PMC9181887, “In Vitro Antithrombotic, Hematological Toxicity, and Inhibitor Studies of Protocatechuic, Isovanillic, and p-Hydroxybenzoic Acids from Maclura tricuspidata (Carr.) Bur” (Molecules, 2022).

System: human platelet-poor plasma
Assay: Recalcification time assay
Type: biochemical
Procedure: Figure 5 Effect of PA (A), IVA (B), and 4-HA (C) on recalcification time and plasma density. Human platelet-poor plasma was mixed with PA, IVA, and 4-HA dissolved in DMSO in 96-well plates and incubated for 10 min at 37 °C. Thereafter, 100 mM pre-warmed CaCl2 was added to the mixture and absorbance was taken every 60 s at 650 nm for 30 min in a microplate reader. The plasma density was presented as the optical density at 650 nm after 30 min. The half time (s) was presented as reaching a half-maximum absorbance value. NC1, plasma only; NC2, plasma treated with CaCl2; PC, positive control group (1 U heparin); PA1–20, 1–20 μg of PA treated; IVA1–20, 1–20 μg of IVA treated; 4-HA1–20, 1–20 μg of 4-HA treated.
Recalcification time was measured in a 96-well plate, according to a previously described method, with slight modifications. First, 50 μL of human platelet-poor plasma was mixed with 50 μL of the compounds, vehicle as NC2, or 1 U heparin as PC, and incubated at 37 °C for 10 min. Thereafter, 100 mM pre-warmed CaCl2 was added to the mixture and absorbance was measured at 650 nm every 1 min for 30 min using a microplate reader. The plasma density was presented as the absorbance at 650 nm after 30 min. The half time was presented as reaching a half-maximum absorbance value.

heparin [reference compound]
plasma coagulation for 1800 s (1U): completely delayed | Absorbance after Reaction (1 U heparin, 650 nm after 30 min, NC2 0.2094 ± 0.0305): 0.0184 ± 0.0016
